Where two headings read alike, the source gives them in different places.
Experiments:
[1] = test system: Axin2 in SW480 cells; assay: cells; format: cell-based; conditions: Homo sapiens, read-out: Axin2 384 IF EC50 IP
Procedure: Using a VPrep, 10 μL of compound/controls was transferred from the compound plate to 60 μL in the cell plate (final 0.5% DMSO, 70 μL). The mixture was incubated for 24 hours at 37° C. at 5% CO2.
The extra media was tapped out. 50 μL of 4% paraformaldehyde (Fisher, AA433689M), 0.1% Triton (Sigma, X100-100 ML) in PBS were added, and the mixture was incubated for 15 minutes at room temperature. […] The extra media was tapped out and to this was added 50 μL of buffer containing Axin2 Antibody (Sigma, SAB1100677-200 µL) at 1:10000 in PBS, 0.1% Tween-20, 1% Normal Goat Serum. The mixture was incubated for 2 hours at room temperature or overnight at 4° C. The cells were then washed twice with PBS, 0.1% Tween-20, and 1% Normal Goat Serum. […] The mixture was then incubated for 30 minutes at room temperature. The cells were then washed twice with PBS, 0.1% Tween-20, and 1% Normal Goat Serum. 50-100 μL PBS was added, and the mixture was covered with a plate seal (Fisher, NC9425162). An ArrayScan (a variation of the compartmental analysis protocol was optimized) was used to scan the plates, and data was analyzed using MEAN_RingSpotAvgIntenCh2). The Axin2 accumulation POC was calculated, and the EC50 was determined using Genedata Screener software to report Axin2 activity.

[2] = molecular target: 6×HIS-tankyrase 1 (1091-1325) (Homo sapiens (Human), UniProt O95271); assay: biochemical; format: biochemical
[3] = test system: total β-catenin in SW480 colorectal cells; assay: cells; format: cell-based; conditions: Homo sapiens
How it was run: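 SW480 cells in growth medium (MEM alpha, 10% heat-inactivated FBS, 10 mM HEPES) treated with a 10-point, 3-fold dilution series of TNKS inhibitor for 40–48 h at 37 °C. Lysates run on an MSD sandwich immunoassay for total β-catenin, read by electrochemiluminescence.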

[4] = SW480, 24 h, SW480 cells, 24 hours
[5] = […] enzyme, 400 nM NAD, 60 minutes at room temperature, read-out: TNKS1 IP IC50
[6] = SW480 cells, 40 to 48 hours, top concentration 10 μM, read-out: SW480-Total β-Catenin IC50 IP
[7] = SW480, read-out: SW480-Total β-Catenin IC50 IP

Chain of 6×HIS-tankyrase 1 (1091-1325) (O95271 1091-1325): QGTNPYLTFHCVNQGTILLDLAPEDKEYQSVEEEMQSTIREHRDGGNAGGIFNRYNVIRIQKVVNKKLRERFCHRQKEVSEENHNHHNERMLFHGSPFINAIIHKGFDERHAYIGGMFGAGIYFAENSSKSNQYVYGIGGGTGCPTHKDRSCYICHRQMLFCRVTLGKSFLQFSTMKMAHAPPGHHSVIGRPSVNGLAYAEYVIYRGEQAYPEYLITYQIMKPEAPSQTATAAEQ

SMILES: CC1(C)OC(=O)N(c2ccc(N3C(=O)Cc4ccccc43)cc2)[C@H]1c1ccccc1 [Example 18, (S)-5,5-dimethyl-3-(4-(2-oxoindolin-1-yl)phenyl)-4-phenyloxazolidin-2-one]
- EC50 [1, 4]: > 25000 nM
- IC50 [2, 5]: 973 nM
- IC50 [3, 6]: > 10000 nM

SMILES: CC1(C)OC(=O)N(c2ccc(-n3c(=O)[nH]c4ccccc43)nc2)[C@H]1c1ccccc1 [Example 22, (S)-5,5-dimethyl-3-(6-(2-oxo-2,3-dihydro-1H-benzo[d]imidazol-1-yl)pyridin-3-yl)-4-phenyloxazolidin-2-one]
- EC50 [1, 4]: > 25000 nM
- IC50 [2, 5]: 1430 nM
- IC50 [3, 6]: > 10000 nM

SMILES: CC1(c2ccccc2)CN([C@H]2CC[C@H](n3c(=O)[nH]c4ccccc43)CC2)C(=O)O1 (stereo partly drawn) [Example 34, (R+S) 5-methyl-3-((1r,4r)-4-(2-oxo-2,3-dihydro-1H-benzo[d]imidazol-1-yl)cyclohexyl)-5-phenyloxazolidin-2-one]
- EC50 ([1]; SW480 cells, 24 hours): 2720 nM
- IC50 [2, 5]: 42.8 nM
- IC50 [3, 6]: 829 nM

SMILES: CC1(C)OC(=O)N(c2ccc(-c3cc(-c4ccccn4)cnn3)cc2)[C@H]1c1ccccc1 [Example 40, (S)-5,5-dimethyl-4-phenyl-3-(4-(5-(pyridin-2-yl)pyridazin-3-yl)phenyl)oxazolidin-2-one]
- EC50 ([1]; SW480, 24 h): > 25000 nM
- IC50 [2, 5]: 621 nM
- IC50 [3, 7]: 9470 nM

SMILES: Cc1ccccc1[C@@H]1N(c2ccc(C(=O)Nc3cccc4cccnc34)cc2)C(=O)OC1(C)C [Example 41, (S)-4-(5,5-dimethyl-2-oxo-4-(o-tolyl)oxazolidin-3-yl)-N-(quinolin-8-yl)benzamide]
- EC50 [1, 4]: 4370 nM
- IC50 [2, 5]: 116 nM
- IC50 [3, 6]: 1980 nM

SMILES: CC1(C)OC(=O)N(c2ccc(C(=O)Nc3cccc4cccnc34)cc2)C1c1ccccc1F (stereo not drawn) [Example 42, (R+S) 4-(4-(2-fluorophenyl)-5,5-dimethyl-2-oxooxazolidin-3-yl)-N-(quinolin-8-yl)benzamide]
- EC50 [1, 4]: 9400 nM
- IC50 [2, 5]: 263 nM
- IC50 [3, 6]: 4870 nM

SMILES: CCC1(CC)OC(=O)N(c2ccc(C(=O)Nc3cccc4cccnc34)cc2)[C@H]1c1ccccc1 [Example 43, (S)-4-(5,5-diethyl-2-oxo-4-phenyloxazolidin-3-yl)-N-(quinolin-8-yl)benzamide]
- EC50 ([1]; SW480 cells, 24 hours): > 25000 nM
- IC50 [2, 5]: 786 nM
- IC50 [3, 6]: > 10000 nM

SMILES: O=C(Nc1cccc2cccnc12)c1ccc(N2C(=O)OC3(CCC3)C2c2ccccc2)cc1 (stereo not drawn) [Example 44, (R+S) 4-(6-oxo-8-phenyl-5-oxa-7-azaspiro[3.4]octan-7-yl)-N-(quinolin-8-yl)benzamide]
- EC50 ([1]; SW480 cells, 24 hours): > 25000 nM
- IC50 [2, 5]: 822 nM
- IC50 [3, 6]: 8800 nM

SMILES: O=C(Nc1cccc2cccnc12)c1ccc(N2C(=O)OC3(CCCC3)C2c2ccccc2)cc1 (stereo not drawn) [Example 45, (R+S) 4-(2-oxo-4-phenyl-1-oxa-3-azaspiro[4.4]nonan-3-yl)-N-(quinolin-8-yl)benzamide]
- EC50 ([1]; SW480, 24 h): > 25000 nM
- IC50 [2, 5]: 1250 nM
- IC50 [3, 7]: > 10000 nM

SMILES: CC1(C)OC(=O)N([C@H]2CC[C@H](N3C(=O)C(F)(F)c4ccccc43)CC2)[C@H]1c1ccccc1 [Example 48, (S)-3-((1s,4R)-4-(3,3-difluoro-2-oxoindolin-1-yl)cyclohexyl)-5,5-dimethyl-4-phenyloxazolidin-2-one]
- EC50 [1, 4]: > 25000 nM
- IC50 [2, 5]: 617 nM
- IC50 [3, 6]: > 10000 nM

SMILES: CC1(C)OC(=O)N([C@H]2CC[C@H](n3c(=O)oc4cccnc43)CC2)[C@H]1c1ccccc1 [Example 49, 3-(trans-4-((4S)-5,5-dimethyl-2-oxo-4-phenyl-1,3-oxazolidin-3-yl)cyclohexyl)[1,3]oxazolo[4,5-b]pyridin-2(3H)-one]
- EC50 [1, 4]: > 25000 nM
- IC50 [2]: 3460 nM
- IC50 [3, 6]: 949 nM

SMILES: CC1(C)OC(=O)N([C@H]2CC[C@H](n3c(=O)[nH]c4cnc(C(F)(F)F)cc43)CC2)[C@H]1c1ccccc1 [Example 52, (S)-5,5-dimethyl-3-((1r,4S)-4-(2-oxo-6-(trifluoromethyl)-2,3-dihydro-1H-imidazo[4,5-c]pyridin-1-yl)cyclohexyl)-4-phenyloxazolidin-2-one]
- EC50 [1, 4]: 1030 nM
- IC50 [2, 5]: 25.8 nM
- IC50 [3, 6]: 693 nM

Reference: US9340549B2, “Oxazolidinone compounds and derivatives thereof” (priority 2012, dated 2016)
